Experiments:
Pythium aphanidermatum = assay: Antimicrobial test (mycelia growth inhibition); format: cell-based; conditions: compound concentration of 1 ppm, PSY medium, 25° C., days 3 to 7 of culturing, read-out: mycelia growth inhibition rate
Procedure: The compound according to the present invention was dissolved in dimethylsulfoxide and diluted to double the prescribed concentration in a 96-well microplate using PSY medium to obtain a drug solution. On the other hand, a diluted dimethylsulfoxide solution was prepared using PSY medium for use as an untreated group.
A suspension of liquid-cultured test microorganisms (Pythium aphanidermatum) was mixed with an equal volume of the drug solution and cultured in a dark location at 25° C. Mycelia growth was observed on days 3 to 7 of culturing to determine mycelia growth inhibition rates.

[1] = tested on: tomato late blight pathogen (Phytophthora infestans); assay: whole plant or invertebrate; format: in vivo; conditions: 96 h, read-out: control value
Pythium ultimum = assay: Cucumber damping-off (PU) control test; format: in vivo; conditions: Globisporangium ultimum, 168 h, soil irrigated with 30 ml emulsion at active ingredient concentration of 100 ppm, ratio of healthy seedlings on day 7 after planting vs untreated group
Procedure: 40 ml of sterile soil were placed in plastic cups followed by leveling the surface of the soil. The soil was then irrigated with 30 ml of the aforementioned emulsion of Preparation Example 2 at an active ingredient concentration of 100 ppm. Following irrigation, cucumbers (variety: Sagami Hanjiro) were planted in the soil and covered with 20 ml of contaminated soil (containing Pythium ultimum) from above. The cups were then placed in plastic bags and allowed to stand undisturbed for 3 days in a constant temperature room at 25° C. (dark location […]). Next, the plants were removed from the bags and held in a constant temperature room at 25° C. using a light-dark cycle of 12 hours. On day 7 after planting, the ratios of healthy seedlings were compared between an untreated group and treated group to calculate control effects (control values).

Structure (SMILES)	inhibition at 1 ppm (Pythium aphanidermatum) [%]	pest or weed control at 100 µg/mL [1] [%]	pest or weed control at 100 ppm (Pythium ultimum) [%]
Cn1nnnc1/C(=N\OCc1cccc(NC(=O)CC2OCC(C)(C)CO2)n1)c1ccccc1 [a-15]	≥ 50	≥ 70	
CCOC(COC(=O)Nc1cccc(CO/N=C(/c2ccccc2)c2nnnn2C)n1)OCC [c-10]	≥ 50	≥ 70	≥ 50
Cn1nnnc1/C(=N\OCc1cccc(NC(=O)OCC2(C)COCOC2)n1)c1ccccc1 [c-2]	≥ 50	≥ 70	
CCOC(SCC)C(=O)Nc1cccc(CO/N=C(/c2ccccc2)c2nnnn2C)n1 (stereo not shown) [a-26]	≥ 50	≥ 70	≥ 50
CCOC(C)(OCC)C(=O)Nc1cccc(CO/N=C(/c2ccccc2)c2nnnn2C)n1 [a-18]		≥ 70	≥ 50
CCCOC(OCCC)C(=O)Nc1cccc(CO/N=C(/c2ccccc2)c2nnnn2C)n1 [a-9]	≥ 50	≥ 70	≥ 50
COC(C)(OC)C(=O)Nc1cccc(CO/N=C(/c2ccccc2)c2nnnn2C)n1 [a-19]	≥ 50	≥ 70	
COCCCCOC(=O)Nc1cccc(CO/N=C(/c2ccccc2)c2nnnn2C)n1 [d-11]	≥ 50	≥ 70	
Cn1nnnc1/C(=N\OCc1cccc(NC(=O)C2(C)OCCCO2)n1)c1ccccc1 [a-24, (Z)-(1-methyl-1H-tetrazol-5-yl)phenylmethanone-o-[2-(2-methyl-1,3-dioxan-2-yl-carbonylamino)pyridin-6-ylmethyl]oxime]	≥ 50	≥ 70	
CCCOC(C)(OCCC)C(=O)Nc1cccc(CO/N=C(/c2ccccc2)c2nnnn2C)n1 [a-29]	≥ 50	≥ 70	≥ 50
Cn1nnnc1/C(=N\OCc1cccc(NC(=O)CC2OCCO2)n1)c1ccccc1 [a-7]	≥ 50	≥ 70	≥ 50
CCOCC(CCOC(=O)Nc1cccc(CO/N=C(/c2ccccc2)c2nnnn2C)n1)OCC (stereo not drawn) [d-18]	≥ 50	≥ 70	≥ 50
CCOC(C)(OCCOC)C(=O)Nc1cccc(CO/N=C(/c2ccccc2)c2nnnn2C)n1 (stereo not shown) [a-31]	≥ 50	≥ 70	≥ 50
CCOC(OCC)C(=O)Nc1cccc(CO/N=C(/c2cccc(F)c2)c2nnnn2C)n1 [e-1]	≥ 50	≥ 70	
CCOC(OCC)C(C)C(=O)Nc1cccc(CO/N=C(/c2ccccc2)c2nnnn2C)n1 (stereo not shown) [a-20]	≥ 50	≥ 70	≥ 50
CCOC(OCC)C(=O)Nc1ccc(Cl)c(CO/N=C(/c2ccccc2)c2nnnn2C)n1 [e-3]	≥ 50	≥ 70	
Cn1nnnc1/C(=N\OCc1cccc(NC(=O)OC(C)(C)C2OCCCO2)n1)c1ccccc1 [c-12]	≥ 50	≥ 70	
Cn1nnnc1/C(=N\OCc1cccc(NC(=O)C2SCCCS2)n1)c1ccccc1 [a-23]	≥ 50	≥ 70	≥ 50
CCOC(OCC)C(=O)Nc1cccc(CO/N=C(/c2ccccc2)c2nnnn2C)n1 [a-1]	≥ 50	≥ 70	≥ 50
COC(CC(C)(C)OC(=O)Nc1cccc(CO/N=C(/c2ccccc2)c2nnnn2C)n1)OC [c-9]	≥ 50	≥ 70	≥ 50
CCOCCCC(C)(C)OC(=O)Nc1cccc(CO/N=C(/c2ccccc2)c2nnnn2C)n1 [d-9]	≥ 50	≥ 70	
CC(OC(=O)Nc1cccc(CO/N=C(/c2ccccc2)c2nnnn2C)n1)C1OCCCO1 (stereo not shown) [c-11]	≥ 50	≥ 70	
COCCC(=O)Nc1cccc(CO/N=C(/c2ccccc2)c2nnnn2C)n1 [b-1]	≥ 50	≥ 70	
COCCC(C)C(=O)Nc1cccc(CO/N=C(/c2ccccc2)c2nnnn2C)n1 (stereo not shown) [b-9]			≥ 50
CCOC1(OC(=O)Nc2cccc(CO/N=C(/c3ccccc3)c3nnnn3C)n2)CC1 [d-2]		≥ 70	
Cn1nnnc1/C(=N\OCc1cccc(NC(=O)OC2(C)CCOCC2)n1)c1ccccc1 [d-6]	≥ 50	≥ 70	
COC(COC(=O)Nc1cccc(CO/N=C(/c2ccccc2)c2nnnn2C)n1)OC [c-7, (Z)-(1-methyl-1H-tetrazol-5-yl)phenylmethanone-o-[2-(2,2-dimethoxyethoxycarbonylamino)pyridin-6-ylmethyl]oxime]	≥ 50	≥ 70	≥ 50

Structure (SMILES)	inhibition at 1 ppm (Pythium aphanidermatum) [%]	pest or weed control at 100 µg/mL [1] [%]	pest or weed control at 100 ppm (Pythium ultimum) [%]
Cn1nnnc1/C(=N\OCc1cccc(NC(=O)OCC2(C)COC(C)(C)OC2)n1)c1ccccc1 [c-3]	≥ 50	≥ 70	
Cn1nnnc1/C(=N\OCc1cccc(NC(=O)OC2(C)CCSCC2)n1)c1ccccc1 [d-7]		≥ 70	
CCSC(SCC)C(=O)Nc1cccc(CO/N=C(/c2ccccc2)c2nnnn2C)n1 [a-22]	≥ 50	≥ 70	≥ 50
CC(C(=O)Nc1cccc(CO/N=C(/c2ccccc2)c2nnnn2C)n1)C1(C)OCCO1 (stereo not shown) [a-13]		≥ 70	
COCCOC(C)(OCCOC)C(=O)Nc1cccc(CO/N=C(/c2ccccc2)c2nnnn2C)n1 [a-32]		≥ 70	
COCCCCC(=O)Nc1cccc(CO/N=C(/c2ccccc2)c2nnnn2C)n1 [b-11]			≥ 50
COC(C)C(=O)Nc1cccc(CO/N=C(/c2ccccc2)c2nnnn2C)n1 (stereo not shown) [b-4]	≥ 50		
CCOC(C)(OCC(F)(F)F)C(=O)Nc1cccc(CO/N=C(/c2ccccc2)c2nnnn2C)n1 (stereo not shown) [a-30]	≥ 50	≥ 70	≥ 50
COC(CC(C)OC(=O)Nc1cccc(CO/N=C(/c2ccccc2)c2nnnn2C)n1)OC (stereo not shown) [c-6]	≥ 50	≥ 70	≥ 50
CCOCC(COC(=O)Nc1cccc(CO/N=C(/c2ccccc2)c2nnnn2C)n1)OCC (stereo not drawn) [d-17]	≥ 50	≥ 70	≥ 50
Cn1nnnc1/C(=N\OCc1cccc(NC(=O)OCC2CO2)n1)c1ccccc1 (stereo not drawn) [d-5]		≥ 70	
Cn1nnnc1/C(=N\OCc1cccc(NC(=O)C2(C)OCCO2)n1)c1ccccc1 [a-5]	≥ 50		
CCOC(OCC)C(C)(C)C(=O)Nc1cccc(CO/N=C(/c2ccccc2)c2nnnn2C)n1 [a-21]		≥ 70	≥ 50
Cn1nnnc1/C(=N\OCc1cccc(NC(=O)CC2(C)OCCO2)n1)c1ccccc1 [a-16]		≥ 70	
CCOC(CCOC(=O)Nc1cccc(CO/N=C(/c2ccccc2)c2nnnn2C)n1)OCC [c-8]	≥ 50	≥ 70	≥ 50
CCC1COC(CC(=O)Nc2cccc(CO/N=C(/c3ccccc3)c3nnnn3C)n2)O1 (stereo not shown) [a-11]	≥ 50	≥ 70	
COCCCOC(=O)Nc1cccc(CO/N=C(/c2ccccc2)c2nnnn2C)n1 [d-12]	≥ 50	≥ 70	
COCCC(C)OC(=O)Nc1cccc(CO/N=C(/c2ccccc2)c2nnnn2C)n1 (stereo not drawn) [d-14]	≥ 50	≥ 70	≥ 50
Cn1nnnc1/C(=N\OCc1cccc(NC(=O)OC2CCC3(CC2)OCCO3)n1)c1ccccc1 [c-5]	≥ 50	≥ 70	≥ 50
Cn1nnnc1/C(=N\OCc1cccc(NC(=O)C2OCCO2)n1)c1ccccc1 [a-4]	≥ 50	≥ 70	≥ 50
CCOCC(C)(COCC)C(=O)Nc1cccc(CO/N=C(/c2ccccc2)c2nnnn2C)n1 [b-5]	≥ 50		
CC1COC(CC(=O)Nc2cccc(CO/N=C(/c3ccccc3)c3nnnn3C)n2)O1 (stereo not shown) [a-10]	≥ 50	≥ 70	
CC1OC(CC(=O)Nc2cccc(CO/N=C(/c3ccccc3)c3nnnn3C)n2)OC1C (stereo not shown) [a-12]	≥ 50	≥ 70	
CC(C)OC(OC(C)C)C(=O)Nc1cccc(CO/N=C(/c2ccccc2)c2nnnn2C)n1 [a-8]		≥ 70	≥ 50
CCOC(OCC)C(=O)Nc1cccc(CO/N=C(/c2ccc(F)c(C)c2)c2nnnn2C)n1 [e-2]	≥ 50	≥ 70	
COCCC(C)(C)OC(=O)Nc1cccc(CO/N=C(/c2ccccc2)c2nnnn2C)n1 [d-10]		≥ 70	≥ 50

Reference: US9156816B2 (priority 2010, dated 2015)
